Data set [1] concerns pylorus ligated rat. Put plainly: Pylorus ligated (Shay) rat. In kind it is in vivo. The settings on record: 20 mg/kg po, 18 hour pylorus ligated rat, previous studies of the applicant. Here is the method: The role of the proteolytic enzyme, pepsin, in the etiology of ulceration is not completely understood. […] It is also possible that pepsin is entirely responsible for the erosions and that the acid produces pain and retards healing. • 1) Umezawa, H. et al., in J. Antibiotics, 23, 259-262 (1970), disclose the pentapeptide, pepstatin, which has the structure [drawing 4] and which is a specific complexing agent for the enzyme pepsin. […] Pepstatin was administered in 100 mg doses, given seven aimes a day, this dosage being sufficient to inhibit the peptic activity of gastric juice for 18 hours a day. […] J. Gastroent., 14, 929-932 (1979), report the results of a double-blind randomized clinical trial of pepstatin versus placebo in patients having gastric ulcer. Pepstatin was administered in 100 mg doses seven times a day. […] When the two agents were given together, significant ulcer reduction was found after only one-half day of predosing. Carbenoxolone is not an antisecretory or anti-pepsin agent, but acts by stimulating gastric mucus synthesis. • 6) Dajani, E. Z. et al., in J. Pharmacol. Exp. Ther., 210, 373-377 (1979), disclose that, in stress ulceration tests in rats, a combination of cimetidine and propantheline bromide produced synergistic antiulcer activity and that a combination of cimetidine and thiopropazate hydrochloride produced additive antiulcer activity. […]

Another data set has as its system pepsin. The settings on record: 100 mg doses seven times a day, ulcer patients; cited from earlier work.
The subject of another data set is duodenal ulcer. The settings on record: 100 mg doses seven times a day versus placebo; cited from earlier work.
The next data set deals with gastric peptic activity. Conditions: patients with ulcer dyspepsia, cited from earlier work.
For data set [2] the following is noted: all animal species studied; cited from earlier work.
In data set [3] the test system is pepsin activity in the gastric juice of swine. Conditions: added to the feed at >50 ppm; cited from earlier work.
For data set [4] the following is noted: cited from earlier work.
The test system of data set [5] is pylorus ligated rat. Conditions: pylorus ligated (Shay) rat, Umezawa et al.; cited from earlier work.
The next data set concerns gastric ulcer. The settings on record: 100 mg doses seven times a day versus placebo; cited from earlier work.

The values below come from patent EP0099122A2, “Compositions comprising pepstatin and an histamine H2-receptor antagonist having an enhanced antiulcer activity” (Bristol-Myers Company, priority 1982, dated 1984).

“Also recorded” adds a separate entry of the source. Square brackets hold non-standard residues; d marks the D form. Peptide text beside a SMILES is read from it. * marks the point of attachment. Sta = CC(C)C[C@H](N)[C@@H](O)CC(=O)O; Isovaleryl = CC(C)CC(=O)*

As to `CC(C)CC(=O)N[C@H](C(=O)N[C@H](C(=O)N[C@@H](CC(C)C)[C@@H](O)CC(=O)N[C@@H](C)C(=O)N[C@@H](CC(C)C)[C@@H](O)CC(=O)O)C(C)C)C(C)C` [Pepstatin, pepstatin] (Isovaleryl-VV[Sta]A[Sta]-OH), in the data set with pylorus ligated rat [1], the pepsin activity result is on record as “completely inhibited pepsin activity” and the ulcer formation entry was “antagonized ulcer formation”. Moreover, the “time for which pepsin activity was inhibited” value in the data set on pepsin is reported as 18 hours a day. In addition, in the data set with duodenal ulcer, the “healing or symptomatology of duodenal ulcer” value is “no significant difference between pepstatin and placebo”. The side effects entry with gastric peptic activity (daily oral doses of 700 mg for up to three months) is “no side effects were observed”. Also, in the data set on gastric peptic activity, the gastric acidity result is given as “has no effect on the gastric acidity” and the gastric peptic activity entry is on record as “inhibits gastric peptic activity”. Moreover, the LD50 result in data set [2] is “exceeded 3000 mg/kg”. Besides, in data set [3], the occurrence of ulcers result is on record as “prevented the occurrence of ulcers” and the “pepsin activity in the gastric juice” value was “inhibited pepsin activity in the gastric juice of swine”. Also, the “excreted in the feces” value in data set [4] (oral administration, animal studies, within 72 hours) was “more than 90%”. In addition, the “absorption upon oral administration” value in data set [4] (oral) is “essentially unabsorbed; also recorded: only poorly absorbed”. Moreover, the “formation of stomach ulcers” value with pylorus ligated rat [5] was “prevent the formation of stomach ulcers”. In addition, the “healing or symptomatology of gastric ulcer” value in the data set with gastric ulcer is given as “not able to detect any influence of pepstatin”.
